# Assay results published in patent publication US20030215817A1, “Modulation of gene expression in formation of fatty atherosclerotic lesions” (priority 2003, published 2003).
# Assays:
# Type in all cases: in vivo, rabbit
# [1] = test system: REC1_1 (MspI AAGC 288) mRNA, TYRO protein tyrosine kinase binding p; assay: TOGA analysis, REC1_1; settings: aorta at day 14 of cholesterol treatment, 3 mg/kg/week for 4 weeks
# Procedure: (§1) To perform the studies, New Zealand male rabbits weighing 2.0-2.5 kg (Charles River, Calco, Italy) were used. The rabbits were divided into three groups and maintained in identical experimental conditions: (1) control group (n=15); rabbits fed a cholesterol-rich diet; (2) lercanidipine-treated group (n=15); rabbits fed a cholesterol-rich diet and also treated with lercanidipine (3 mg/kg/week); and (3) (R)-lercanidipine-treated group (n=5); rabbits fed a cholesterol-rich diet and also treated with the (R)-enantiomer of lercanidipine (3 mg/kg/week). After a 2 week period of subcutaneous, once a week, pretreatment with 3 mg/kg/week of lercanidipine or (R)-lercanidipine, the rabbits received a daily cholesterol supplement for up to 8 weeks or 2 weeks, respectively. In the following examples, use of the term “lercanidipine” refers to the racemic mixture of lercanidipine hydrochloride, whereas “(R)-lercanidipine” refers to the (R)-enantiomer of lercanidipine hydrochloride.
# (§2) The mRNA from the above-described groups was isolated from aorta at different time points, resulting in the following mRNA samples: (1) Day 0 Control=no administered cholesterol, no lercanidipine; (2) Day 0+lercanidipine=no administered cholesterol, treatment with lercanipidine (2 weeks; 3 mg/kg/week); (3) Day 14 Control=cholesterol diet for two weeks, no lercanidipine; (4) Day 14+lercanidipine=cholesterol diet for two weeks, treatment with lercanidipine (four weeks; 3 mg/kg/week); (5) Week 8 Control=cholesterol diet for 8 weeks, no lercanidipine; and (6) Week 8+lercanidipine=cholesterol diet for 8 weeks, treatment with lercanidipine (10 weeks; 3 mg/kg/week). In addition, Day 14+(R)-lercanidipine mRNA samples were prepared from rabbits given a cholesterol diet for two weeks and treated with 3 mg/kg/week (R)-lercanidipine for four weeks.
# (§3) Aorta mRNAs were prepared in the following manner. First, the aortas from each experimental group were retrieved and shredded using a polytron homogenizer. The samples were further homogenized using a teflon pestle, after which the cellular debris, nuclei, and blood cells were pelleted by centrifugation. The supernatants were extracted twice with phenol-chloroform-isoamyl alcohol and once with chloroform-isoamyl alcohol. RNA was then precipitated from the aqueous phase with ethanol. The poly A+ mRNA was prepared using standard methods of polyA selection known in the art (Schriber et al., J. Mol. Biol., 142:93-116 (1980)).
# (§4) The isolated mRNA was analyzed using a method of simultaneous sequence-specific identification of mRNAs known as TOGA, described in U.S. Pat. No. 5,459,037 and U.S. Pat. No. 5,807,680, hereby incorporated herein by reference. In a preferred embodiment, the TOGA method further comprised an additional PCR step performed using a mixture of four 5′ PCR primers and cDNA templates prepared from a population of antisense cRNAs. A final PCR step that used a mixture of 256 5′ PCR primers produced PCR products that were cDNA fragments that corresponded to the 3′-region of the starting mRNA population. The produced PCR products were then identified by: (a) the initial 5′ sequence comprising the sequence remainder of the recognition site of the restriction endonuclease used to cut and isolate the 3′ region plus the sequence of the preferably four parsing bases immediately 3′ to the remainder of the recognition site, preferably the sequence of the entire fragment; and (b) the length of the fragment. These two parameters, sequence and fragment length, were used to compare the obtained PCR products to a database of known polynucleotide sequences. Since the length of the obtained PCR products includes known vector sequences at the 5′ and 3′ ends of the insert, the sequence of the insert provided in the sequence listing is shorter than the fragment length that forms part of the digital address.
# (§5) The method yields Digital Sequence Tags (DSTs), that is, polynucleotides that are expressed sequence tags of the 3′ end of mRNAs. […]
# [2] = test system: REC1_7 (MspI CACA 282) mRNA; assay: TOGA analysis, REC1_7; settings: aorta at day 14 of cholesterol administration, 3 mg/kg/week for 4 weeks
# Procedure: as §1, §2, §3, §4, §5
# [3] = test system: REC1_22 (digital address TGGG 164) mRNA; assay: TOGA analysis, REC1_22; settings: TOGA; hypercholesterolemic plus lercanidipine R (−), eight weeks; H2 (normocholesterolemic)=1.0
# Procedure: as §1, §2, §3, §4, §5
# [4] = test system: REC1_24 (digital address CCGG 232) mRNA; assay: TOGA analysis, REC1_24; settings: TOGA; hypercholesterolemic plus lercanidipine R (−), eight weeks; H2 (normocholesterolemic)=1.0
# Procedure: as §1, §2, §3, §4, §5
# [5] = test system: REC1_28 (digital address CGGT 101) mRNA, calgizzarin; assay: TOGA analysis, REC1_28; settings: aorta of hypercholesterolemic rabbits treated with (R)-lercanidipine
# Procedure: as §1, §2, §3, §4, §5
# [6] = test system: REC1_31 (digital address TGCA 210) mRNA, mitochondrial genome; assay: TOGA analysis, REC1_31; settings: aorta at day 14 of cholesterol administration, 3 mg/kg/week for 4 weeks
# Procedure: as §1, §2, §3, §4, §5
# [7] = test system: REC1_33 (digital address CCGA 96) mRNA, as1_casein gene; assay: TOGA analysis, REC1_33; settings: aorta at day 14 of cholesterol administration, 3 mg/kg/week for 4 weeks
# Procedure: as §1, §2, §3, §4, §5
# [8] = test system: REC1_34 (digital address CGGT 209) mRNA; assay: TOGA analysis, REC1_34; settings: aorta at day 14 of cholesterol, 3 mg/kg/week for 4 weeks
# Procedure: as §1, §2, §3, §4, §5
# [9] = test system: REC1_37 (digital address TTCA 264) mRNA, ribosomal protein L15; assay: TOGA analysis, REC1_37; settings: aorta at day 14 of cholesterol, 3 mg/kg/week for 4 weeks
# Procedure: as §1, §2, §3, §4, §5
smiles,measurement,setting,value
"COC(=O)C1=C(C)NC(C)=C(C(=O)OC(C)(C)CN(C)CCC(c2ccccc2)c2ccccc2)[C@@H]1c1cccc([N+](=O)[O-])c1.Cl (single isomer, unassigned) [(R)-lercanidipine]",level of gene expression of REC1_1 (TOGA),[1],872
same,level of gene expression of REC1_7 (TOGA),[2],683
same,"Relative Abundance Rec1_22, TOGA, D",[3],0.1
same,"Relative Abundance Rec1_24, TOGA, D",[4],0.3
same,"expression of REC1_28 (TOGA), in words",[5],not down-regulated
same,level of gene expression of REC1_31 (TOGA),[6],28
same,level of gene expression of REC1_33 (TOGA),[7],170
same,level of gene expression of REC1_34 (TOGA),[8],58
same,level of gene expression of REC1_37 (TOGA),[9],42
